We go through two compounds from paper PMC11022890 (Drug Metabolism and Disposition, 2021).

The target of series [1] is T1, UGT2B17 (Homo sapiens, UniProt O75795).
T1 sequence (O75795 24-530): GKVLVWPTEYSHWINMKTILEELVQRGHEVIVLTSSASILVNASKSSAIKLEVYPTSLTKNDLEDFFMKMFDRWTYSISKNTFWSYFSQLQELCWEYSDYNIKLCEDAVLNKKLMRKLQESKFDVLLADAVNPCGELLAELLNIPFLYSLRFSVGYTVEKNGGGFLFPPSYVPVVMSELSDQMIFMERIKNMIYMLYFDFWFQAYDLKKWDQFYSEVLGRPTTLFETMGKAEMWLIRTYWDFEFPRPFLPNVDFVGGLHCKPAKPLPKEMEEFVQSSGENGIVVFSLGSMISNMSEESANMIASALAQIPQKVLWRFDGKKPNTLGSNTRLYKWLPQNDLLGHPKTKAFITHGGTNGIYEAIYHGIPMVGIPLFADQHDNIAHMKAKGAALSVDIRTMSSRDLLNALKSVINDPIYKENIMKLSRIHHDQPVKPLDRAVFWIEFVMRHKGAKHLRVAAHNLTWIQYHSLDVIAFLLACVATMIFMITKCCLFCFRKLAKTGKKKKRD
The class given is in vitro ADME. Particulars: 100 µM; rUGT2B17 microsomes; dihydroexemestane; screening.

The target in series [2] is T2, UGT2B4 (Homo sapiens, UniProt P06133).
T2 sequence (P06133 24-528): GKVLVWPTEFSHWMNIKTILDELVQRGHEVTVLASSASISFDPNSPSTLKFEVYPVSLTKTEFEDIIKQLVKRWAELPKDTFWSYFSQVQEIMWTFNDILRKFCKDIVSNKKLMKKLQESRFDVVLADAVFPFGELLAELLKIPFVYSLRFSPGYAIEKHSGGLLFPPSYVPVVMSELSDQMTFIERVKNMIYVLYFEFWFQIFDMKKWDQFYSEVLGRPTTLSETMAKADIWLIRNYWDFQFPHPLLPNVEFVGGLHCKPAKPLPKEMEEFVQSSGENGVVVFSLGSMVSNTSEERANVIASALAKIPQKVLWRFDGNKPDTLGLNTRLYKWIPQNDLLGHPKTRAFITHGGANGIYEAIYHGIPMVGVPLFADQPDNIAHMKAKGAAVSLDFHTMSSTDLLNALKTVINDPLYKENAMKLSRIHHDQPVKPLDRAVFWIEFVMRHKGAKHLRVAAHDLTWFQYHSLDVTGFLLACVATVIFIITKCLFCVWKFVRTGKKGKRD
As to the kind of experiment: Inhibition of codeine glucuronidation in rUGT2B4 microsomes. The format is in vitro ADME.

Series [3] deals with T3, UGT1A9 (Homo sapiens, UniProt O60656).
T3 sequence (O60656 26-530): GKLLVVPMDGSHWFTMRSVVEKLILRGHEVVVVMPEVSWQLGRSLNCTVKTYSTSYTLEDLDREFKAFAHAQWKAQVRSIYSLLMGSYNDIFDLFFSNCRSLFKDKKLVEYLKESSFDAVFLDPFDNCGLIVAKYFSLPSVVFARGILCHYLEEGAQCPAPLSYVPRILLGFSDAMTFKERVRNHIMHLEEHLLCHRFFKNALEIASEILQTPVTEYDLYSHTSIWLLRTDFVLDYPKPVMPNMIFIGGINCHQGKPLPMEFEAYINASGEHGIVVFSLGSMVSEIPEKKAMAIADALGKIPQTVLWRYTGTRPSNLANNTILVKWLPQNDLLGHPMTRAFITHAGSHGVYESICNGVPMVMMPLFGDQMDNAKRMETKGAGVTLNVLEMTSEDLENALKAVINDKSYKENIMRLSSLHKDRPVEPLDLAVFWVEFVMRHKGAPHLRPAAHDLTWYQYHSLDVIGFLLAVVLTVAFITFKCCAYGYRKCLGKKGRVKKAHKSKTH
As to the kind of experiment: Inhibition of furosemide glucuronidation in rUGT1A9 microsomes. The class given is in vitro ADME.

Series [4] deals with T3, UGT1A9. In words: Inhibition of propofol glucuronidation in rUGT1A9 microsomes. The class given is in vitro ADME.
The target of series [5] is T4, UGT1A9 in human liver microsomes (Homo sapiens, UniProt O60656).
T4 sequence (O60656 26-530): T3 sequence (O60656 26-530)
As to the kind of experiment: biochemical. The following applies: HLM.

In series [6] the target is T5, UGT1A9 in human kidney microsomes (Homo sapiens, UniProt O60656).
T5 sequence (O60656 26-530): T3 sequence (O60656 26-530)
As to the kind of experiment: Inhibition of propofol glucuronidation. Particulars: HKM.

Series [7] has as its target T6, UGT1A3 (Homo sapiens, UniProt P35503).
T6 sequence (P35503 29-534): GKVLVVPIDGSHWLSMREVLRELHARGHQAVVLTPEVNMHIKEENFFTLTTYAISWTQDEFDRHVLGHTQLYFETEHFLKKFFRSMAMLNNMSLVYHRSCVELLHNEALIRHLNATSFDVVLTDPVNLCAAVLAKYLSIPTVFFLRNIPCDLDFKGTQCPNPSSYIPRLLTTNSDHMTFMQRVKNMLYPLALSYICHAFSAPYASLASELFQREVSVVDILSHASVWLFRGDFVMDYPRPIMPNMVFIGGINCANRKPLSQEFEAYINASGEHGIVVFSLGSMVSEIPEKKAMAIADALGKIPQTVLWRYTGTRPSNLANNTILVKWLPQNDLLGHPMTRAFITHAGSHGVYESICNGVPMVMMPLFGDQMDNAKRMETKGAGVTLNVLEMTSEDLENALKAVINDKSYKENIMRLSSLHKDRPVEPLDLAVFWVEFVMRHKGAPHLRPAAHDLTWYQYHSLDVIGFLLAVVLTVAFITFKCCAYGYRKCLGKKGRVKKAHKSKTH
The class given is in vitro ADME. The following applies: rUGT1A3 microsomes; 10 or 100 µM.

The target of series [8] is T3, UGT1A9. As to the kind of experiment: in vitro. Particulars: both, HLM.
[9] abbreviates: IC50, probe substrate furosemide.
[10] abbreviates: IC50,u (binding-corrected IC50), probe substrate furosemide.
Where [11] appears, read: IC50,u (binding-corrected IC50), probe substrate propofol.

By IC50 is commonly meant the concentration that gives 50% inhibition. For the compound `CCCCCc1cc(O)c2c(c1)OC(C)(C)c1ccc(C)cc1-2` [CBN, cannabinol], the “inhibition vs control without cannabinoid” value in series [1] is 34%. Also, the “inhibition in screening (in words)” value in series [2] (10 or 100 µM) is reported as “significant inhibition was not observed”; in series [4] (10 or 100 µM) it was “significant inhibition”; in series [7], “no significant inhibition”. Besides, the IC50 was determined as 9200 ± 2100 nM in series [3] (setting [9]); 780 ± 180 nM in series [3] (setting [10]); 6000 ± 750 nM in series [4] (IC50, probe substrate propofol); 510 ± 63 nM in series [4] (setting [11]); 31000 ± 4100 nM in series [5] (IC50, probe substrate propofol); 2900 ± 380 nM in series [5] (setting [11]). Also, the IC50 in series [6] (IC50, probe substrate propofol) came to 7500 ± 1700 nM; in series [6] (setting [11]) it was 900 ± 200 nM; in series [8] (setting [9]), 30000 ± 4500 nM; in series [8] (setting [10]) it was 2800 ± 960 nM.

Take `C=C(C)[C@@H]1CCC(C)=C[C@H]1c1c(O)cc(CCCCC)cc1O` [CBD, cannabidiol]: the “inhibition vs control without cannabinoid” value in series [1] was 43%; in series [2] (10 µM, codeine, screening), 66%; in series [4] (10 µM, propofol, screening) it was 91%. Moreover, the IC50 in series [2] (IC50, probe substrate codeine) was 5800 ± 1200 nM; in series [2] (IC50,u (binding-corrected IC50), probe substrate codeine) it was 220 ± 45 nM; in series [3] (setting [9]), 2400 ± 660 nM; in series [3] (setting [10]), 90 ± 25 nM; in series [4] (IC50, probe substrate propofol) it was 3200 ± 520 nM; in series [4] (setting [11]), 120 ± 20 nM. Also, the IC50 in series [5] (IC50, probe substrate propofol) was 19000 ± 4600 nM; in series [5] (setting [11]) it was 1000 ± 240 nM; in series [6] (IC50, probe substrate propofol), 5500 ± 560 nM; in series [6] (setting [11]) it was 340 ± 35 nM; in series [8] (setting [9]), 29000 ± 4000 nM; in series [8] (setting [10]), 1500 ± 200 nM. Further, the “inhibition in screening (in words)” value in series [7] is recorded as “no significant inhibition”.
